From patent publication US8648116B2, “Derivatives of N-(arylamino) sulfonamides including polymorphs as inhibitors of MEK as well as compositions, methods of use and methods for preparing the same” (Ardea Biosciences, Inc., priority 2005, dated 2014)
Like-named read-outs stand apart in the source and are kept apart here. Marks after values point to notes of the source that are not given here.

What was measured:
Colo205 tumor cells = assay: ED50 in Colo205 xenografts (Example 94D); type: in vivo, nu/nu mice
Description: Male nu/nu mice were implanted with Colo205 tumor cells. After 10 days animals were randomized by tumor size (range 126-256 mm^3) and treated with paclitaxel (IV, QODx5), vehicle or Compound A (PO, QDx14).

A375 cells = assay: Anchorage-independent growth inhibition (MTS, 7 days); type: cell-based, human; details: Homo sapiens, A-375, 168 h, A375 Melanoma, BRAF V600E, 0.15% agarose, read-out: Anchorage-Independent GI50 (nM ± sd)
rat hepatocytes = assay: Primary hepatocyte toxicity (AK release, ATP, 48 hr); type: cell-based; details: 48 hr
Procedure: Cryopreserved rat hepatocytes were obtained from CellzDirect (Austin, Tex.) and plated on collagen coated 96-well plates according to manufacturer's instructions. Drug was added 4 hr after plating (final DMSO concentration 0.5%).
(§1) After 48 hr, supernatant AK levels were determined using Toxilight, and cellular ATP levels were determined using CellTiterGlo. Full kill values were determined using 15 μM VRX-14686.

[1] = Plasma concentrations in mice (Example 94F); type: in vivo, nu/nu mice; details: A375-bearing nu/nu mice; for AUC / Cmax: female, nu/nu, mouse, plasma, po
human hepatocytes = assay: Primary hepatocyte toxicity (AK release, ATP, 48 hr); type: cell-based; details: 48 hr
Procedure: Plated human hepatocytes were obtained from CellzDirect and processed according to manufacturer's instructions.
as §1

[2] = system: human A375 melanoma xenografts
Colo205 cells = assay: Anchorage-independent growth inhibition (MTS, 7 days); type: cell-based, human; details: Homo sapiens, COLO 205, 168 h, Colo205 Colon, BRAF V600E, 0.15% agarose, read-out: Anchorage-Independent GI50 (nM ± sd)
Procedure: Wells of an “ultra low binding” plate (Corning, Acton Mass.) were filled with 60 μl of a 0.15% agarose solution in complete RPMI. Then, 60 μl complete RPMI containing 9000 Colo205 cells in 0.15% agarose was added per well. After 24 hr, 60 μl of a 3× drug solution in agarose free complete RPMI was added. After 7 days, 36 μl 6×MTS reagent (CellTiter 96 Aqueous, Promega, Madison, Wis.) was added per well. After 2 hr at 37° C., absorbance at 490 nm was determined on the M5 plate reader (Molecular Devices, Sunnyvale, Calif.).
Viability was determined by MTS assay.

[3] = system: COLO 205 human colon carcinoma xenografts; assay: Activity against subcutaneous COLO 205 xenografts (Example 118)
Procedure: Dosing solutions of Compound A were prepared fresh daily by dissolving the required amount of compound in 100% Cremophor EL, and then diluting ten-fold with normal saline. Final dosing solution concentrations were 2.5, 5, 10, or 20 mg/mL, in order to provide respective doses of 25, 50, 100 or 200 mg/kg in a dosing volume of 10 mL/kg. Paclitaxel (Natural Pharmaceuticals, Inc.) was prepared fresh on each day of dosing in a vehicle consisting of 5% ethanol and 5% Cremophor EL in 90% D5W (5% EC vehicle).
Group 1 received the formulation vehicle (10% Cremophor EL in saline), and served as the tumor growth control group. Group 2 received the reference drug paclitaxel administered on its optimal schedule in nude mice (30 mg/kg i.v. qod×5). […] All doses were scaled to the weight of the animal (0.2 mL per 20 grams body weight).
Tumors were measured twice each week using calipers. […] Therefore endpoint tumor size of 800 mm^3 was used for analysis of tumor growth delay (TGD).
[formula] where b is the intercept and m is the slope of the line obtained by linear regression of a log-transformed tumor growth data set.

[4] = oral, column 1, no head (b1249 order: 50 mg/kg QD)
[5] = oral, column 2, no head (b1249 order: 25 mg/kg BID)
[6] = oral, column 3, no head (b1249 order: second 50 mg/kg QD)
[7] = oral, column 4, no head (b1249 order: 12.5 mg/kg BID)
[8] = 50 mg/kg, oral, column 1, no head (b1249 order: 50 mg/kg QD)
[9] = 50 mg/kg, oral, column 3, no head (b1249 order: second 50 mg/kg QD)
[10] = Group 3: Compound A 50 mg/kg po qd × 14
[11] = Group 3: Compound A 50 mg/kg po qd × 14, n=9
[12] = Group 4: Compound A 25 mg/kg po bid × 14
[13] = Group 4: Compound A 25 mg/kg po bid × 14, n=9
[14] = Group 5: Compound A 25 mg/kg po qd × 14
[15] = Group 5: Compound A 25 mg/kg po qd × 14, n=9
[16] = Group 6: Compound A 12.5 mg/kg po bid × 14
[17] = Group 6: Compound A 12.5 mg/kg po bid × 14, n=9
[18] = Group 3, 50 mg/kg po qd × 14 per the 39th table (25 mg/kg p.o. qd×14), n=9
[19] = Group 4, 25 mg/kg po bid × 14 first day 1 dose per the 39th table (50 mg/kg p.o. qd×14), n=9
[20] = Group 5, 25 mg/kg po qd × 14 per the 39th table (100 mg/kg p.o. qd×14), n=9
[21] = Group 6, 12.5 mg/kg po bid × 14 first day 1 dose per the 39th table (200 mg/kg p.o., discontinued after six days), n=9

COc1cc(F)c(F)c(Nc2ccc(I)cc2F)c1NS(=O)(=O)C1(C[C@H](O)CO)CC1 [Compound A]
% TGI (Colo205 tumor cells; Compound A 2.5 mg/kg PO QDx14): 47* % | Day 15 Tumor Volume (Colo205 tumor cells; Compound A 2.5 mg/kg PO QDx14): 1187 ± 127 mm^3 | % TGI (Colo205 tumor cells; Compound A 5 mg/kg PO QDx14): 48* % | Day 15 Tumor Volume (Colo205 tumor cells; Compound A 5 mg/kg PO QDx14): 1175 ± 104 mm^3 | % TGI (Colo205 tumor cells; Compound A 10 mg/kg PO QDx14): 55* % | Day 15 Tumor Volume (Colo205 tumor cells; Compound A 10 mg/kg PO QDx14): 1045 ± 160 mm^3 | % TGI (Colo205 tumor cells; Compound A 25 mg/kg PO QDx14): 70* % | Day 15 Tumor Volume (Colo205 tumor cells; Compound A 25 mg/kg PO QDx14): 762 ± 81 mm^3 | GI50 (A375 cells): 68 ± 34 nM | AK release (% Cell Survival) Hepatocytes Rat (rat hepatocytes; Compound A 1.1 (μM)): 96% | ATP (% Cell Survival) Hepatocytes Rat (rat hepatocytes; Compound A 1.1 (μM)): 114% | AK release (% Cell Survival) Hepatocytes Rat (rat hepatocytes; Compound A 3.3 (μM)): 97% | ATP (% Cell Survival) Hepatocytes Rat (rat hepatocytes; Compound A 3.3 (μM)): 87% | AK release (% Cell Survival) Hepatocytes Rat (rat hepatocytes; Compound A 10.0 (μM)): 93% | ATP (% Cell Survival) Hepatocytes Rat (rat hepatocytes; Compound A 10.0 (μM)): 72% | AK release (% Cell Survival) Hepatocytes Rat (rat hepatocytes; Compound A 30.0 (μM)): 91% | ATP (% Cell Survival) Hepatocytes Rat (rat hepatocytes; Compound A 30.0 (μM)): 57% | Cmin [1, 4]: 60 ng/mL | Cmin Free Fraction [1, 4]: 0.117 ng/mL | Cmin [1, 5]: 1240 ng/mL | Cmin Free Fraction [1, 5]: 2.48 ng/mL | Cmin [1, 6]: 30 ng/mL | Cmin Free Fraction [1, 6]: 0.059 ng/mL | Cmin [1, 7]: 490 ng/mL | Cmin Free Fraction [1, 7]: 0.986 ng/mL | AUC ([1]; 12.5 mg/kg): 78 µg·h/mL | Cmax ([1]; 12.5 mg/kg): 7800 ng/mL | AUC ([1]; 25 mg/kg): 117 µg·h/mL | Cmax ([1]; 25 mg/kg): 10200 ng/mL | AUC [1, 8]: 132 µg·h/mL | Cmax [1, 8]: 23800 ng/mL | AUC [1, 9]: 66.5 µg·h/mL | Cmax [1, 9]: 11900 ng/mL | AK release (% Cell Survival) Hepatocytes Human (human hepatocytes; Compound A 1.1 (μM)): 92% | ATP (% Cell Survival) Hepatocytes Human (human hepatocytes; Compound A 1.1 (μM)): 108% | AK release (% Cell Survival) Hepatocytes Human (human hepatocytes; Compound A 3.3 (μM)): 102% | ATP (% Cell Survival) Hepatocytes Human (human hepatocytes; Compound A 3.3 (μM)): 104% | AK release (% Cell Survival) Hepatocytes Human (human hepatocytes; Compound A 10.0 (μM)): 112% | ATP (% Cell Survival) Hepatocytes Human (human hepatocytes; Compound A 10.0 (μM)): 107% | AK release (% Cell Survival) Hepatocytes Human (human hepatocytes; Compound A 30.0 (μM)): 109% | ATP (% Cell Survival) Hepatocytes Human (human hepatocytes; Compound A 30.0 (μM)): 81% | % TGD [2, 10]: 21% | Median TTE [2, 10]: 27.5 days | T − C [2, 10]: 4.7 days | Regressions CR [2, 11]: 0 | Regressions PR [2, 11]: 1 | Regressions TFS [2, 11]: 0 | % TGD [2, 12]: 163% | MTV (n) Day 60 [2, 12]: 0 (4) | Median TTE [2, 12]: 59.9 days | T − C [2, 12]: 37.1 days | Regressions CR [2, 13]: 5 | Regressions PR [2, 13]: 4 | Regressions TFS [2, 13]: 4 | % TGD [2, 14]: 12% | Median TTE [2, 14]: 25.6 days | T − C [2, 14]: 2.8 days | Regressions CR [2, 15]: 0 | Regressions PR [2, 15]: 0 | Regressions TFS [2, 15]: 0 | % TGD [2, 16]: 21% | Median TTE [2, 16]: 27.5 days | T − C [2, 16]: 4.7 days | Regressions CR [2, 17]: 0 | Regressions PR [2, 17]: 1 | Regressions TFS [2, 17]: 0 | Mean BW Nadir ([2]; mouse, in vivo, po, 25 mg/kg): −0.6% Day 15 | GI50 (Colo205 cells): 33 ± 16 nM | TGD ([3]; 25 mg/kg p.o. qd×14): 3% | TGD ([3]; 50 mg/kg p.o. qd×14): 46% | TGD ([3]; 100 mg/kg p.o. qd×14): maximum TGD possible | relation to the MTD ([3]; 200 mg/kg p.o. once daily): above the MTD | TR deaths ([3]; 200 mg/kg p.o., dosing stopped after Day 6): 3/9 | Median TTE ([3]; Group 3, 25 mg/kg p.o. qd×14): 47.9 days | % TGD [3, 18]: 17% | MTV (n) Day 74 [3, 18]: 0 (3) | Median TTE [3, 18]: 47.9 days | No of CR [3, 18]: 0 | No of NTR (non-treatment-related deaths) [3, 18]: 2 | No of PR [3, 18]: 1 | No of TFS [3, 18]: 0 | No of TR (treatment-related deaths) [3, 18]: 2 | SS (statistical significance, logrank vs Group 1) [3, 18]: ns | T − C [3, 18]: 6.9 days | % TGD [3, 19]: 44% | MTV (n) Day 74 [3, 19]: 195 (1) | Median TTE [3, 19]: 59.1 days | No of CR [3, 19]: 0 | No of NTR (non-treatment-related deaths) [3, 19]: 0 | No of PR [3, 19]: 4 | No of TFS [3, 19]: 0 | No of TR (treatment-related deaths) [3, 19]: 0 | SS (statistical significance, logrank vs Group 1) [3, 19]: ns | T − C [3, 19]: 18.1 days | Median TTE ([3]; Group 4, 50 mg/kg p.o. qd×14): 59.1 days | % TGD [3, 20]: 80% | MTV (n) Day 74 [3, 20]: 320 (5) | Median TTE [3, 20]: 74.0 days | No of CR [3, 20]: 0 | No of NTR (non-treatment-related deaths) [3, 20]: 0 | No of PR [3, 20]: 4 | No of TFS [3, 20]: 0 | No of TR (treatment-related deaths) [3, 20]: 1 | SS (statistical significance, logrank vs Group 1) [3, 20]: ns | T − C [3, 20]: 33.0 days | Median TTE ([3]; Group 5, 100 mg/kg p.o. qd×14): 74.0 days | % TGD [3, 21]: 41% | MTV (n) Day 74 [3, 21]: 0 (3) | Median TTE [3, 21]: 57.8 days | No of CR [3, 21]: 3 | No of NTR (non-treatment-related deaths) [3, 21]: 2 | No of PR [3, 21]: 1 | No of TFS [3, 21]: 0 | No of TR (treatment-related deaths) [3, 21]: 2 | T − C [3, 21]: 16.8 days
